Data taken from publication PMC6136245 (Bioorganic & medicinal chemistry letters, 2013).

Experiments:
HCV NS3 helicase (NS3h) [1] = target: T1, HCV NS3 helicase (NS3h) (Hepacivirus hominis (Hepatitis C virus), UniProt P29846); assay: HCV helicase unwinding assay, RNA substrate; assay type: biochemical
HCV NS3 helicase (NS3h) [2] = target: T1, HCV NS3 helicase (NS3h); assay: HCV helicase unwinding assay, DNA substrate; assay type: biochemical
JEV helicase = JEV helicase (Japanese encephalitis virus, UniProt P27395); assay: JEV helicase inhibition; assay type: biochemical
DENV helicase = DENV helicase (Dengue virus type 2, UniProt P29990); assay: DENV helicase inhibition; assay type: biochemical
[3] = tested on: EcoRI-digested pT7-7 plasmid; assay: Gel shift assay with plasmid; assay type: binding

T1 sequence (P29846 1192-1657): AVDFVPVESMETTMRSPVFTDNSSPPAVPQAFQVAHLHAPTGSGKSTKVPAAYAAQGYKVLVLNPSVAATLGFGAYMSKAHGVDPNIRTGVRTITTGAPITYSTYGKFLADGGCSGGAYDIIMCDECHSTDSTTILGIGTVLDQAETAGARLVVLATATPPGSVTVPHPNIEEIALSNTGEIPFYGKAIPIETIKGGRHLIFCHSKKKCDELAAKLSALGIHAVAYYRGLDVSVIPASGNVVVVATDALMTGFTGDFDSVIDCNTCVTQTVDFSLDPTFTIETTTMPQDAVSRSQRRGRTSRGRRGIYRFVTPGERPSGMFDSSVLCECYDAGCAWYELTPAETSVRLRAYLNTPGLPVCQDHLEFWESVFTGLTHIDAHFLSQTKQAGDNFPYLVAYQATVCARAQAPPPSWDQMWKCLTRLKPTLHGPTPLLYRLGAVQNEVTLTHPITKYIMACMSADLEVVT
DENV helicase, sequence (P29990 1476-2093): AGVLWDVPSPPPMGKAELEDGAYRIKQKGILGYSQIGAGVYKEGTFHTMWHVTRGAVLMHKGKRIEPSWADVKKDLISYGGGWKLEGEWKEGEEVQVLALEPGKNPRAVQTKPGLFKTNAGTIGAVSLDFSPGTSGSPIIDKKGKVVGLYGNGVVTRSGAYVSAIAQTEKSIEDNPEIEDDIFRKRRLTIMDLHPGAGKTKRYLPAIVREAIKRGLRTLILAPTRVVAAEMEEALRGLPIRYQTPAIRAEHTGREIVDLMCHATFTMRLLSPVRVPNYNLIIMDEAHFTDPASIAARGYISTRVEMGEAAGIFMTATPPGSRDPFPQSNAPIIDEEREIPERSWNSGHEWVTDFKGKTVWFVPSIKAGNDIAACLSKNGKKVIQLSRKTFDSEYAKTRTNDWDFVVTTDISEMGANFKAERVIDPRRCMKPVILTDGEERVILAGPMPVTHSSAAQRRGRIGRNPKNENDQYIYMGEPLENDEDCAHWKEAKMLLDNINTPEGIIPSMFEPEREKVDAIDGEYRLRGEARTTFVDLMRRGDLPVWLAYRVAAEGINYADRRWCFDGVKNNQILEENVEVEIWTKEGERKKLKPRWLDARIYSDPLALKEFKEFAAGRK
JEV helicase, sequence (P27395 1505-2123): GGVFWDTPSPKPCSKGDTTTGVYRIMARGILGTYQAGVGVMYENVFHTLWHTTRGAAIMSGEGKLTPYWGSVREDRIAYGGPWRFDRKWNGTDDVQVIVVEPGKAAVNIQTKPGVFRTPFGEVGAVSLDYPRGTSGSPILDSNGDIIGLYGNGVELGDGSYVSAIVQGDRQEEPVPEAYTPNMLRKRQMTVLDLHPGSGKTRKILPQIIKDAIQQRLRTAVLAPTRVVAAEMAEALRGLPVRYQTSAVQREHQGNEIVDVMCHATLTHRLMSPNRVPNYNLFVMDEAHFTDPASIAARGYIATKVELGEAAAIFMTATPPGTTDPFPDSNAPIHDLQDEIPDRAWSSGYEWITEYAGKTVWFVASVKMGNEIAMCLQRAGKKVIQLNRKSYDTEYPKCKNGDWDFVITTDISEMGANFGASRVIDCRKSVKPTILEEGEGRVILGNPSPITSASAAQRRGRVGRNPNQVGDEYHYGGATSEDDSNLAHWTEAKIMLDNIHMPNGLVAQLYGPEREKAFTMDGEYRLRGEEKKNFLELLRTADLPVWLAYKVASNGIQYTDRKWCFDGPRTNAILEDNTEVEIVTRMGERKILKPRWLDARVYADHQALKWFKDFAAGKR

## COC(=O)c1cccc2oc(-c3ccccc3O)nc12 [Compound 1]
HCV NS3 helicase (NS3h) [1]
  IC50: > 1.8 mM
HCV NS3 helicase (NS3h) [2]
  IC50: > 1.8 mM

## O=C(O)c1cccc2oc(-c3ccccc3O)nc12 [Compound 2]
HCV NS3 helicase (NS3h) [1]
  IC50: > 1.8 mM
HCV NS3 helicase (NS3h) [2]
  IC50: > 1.8 mM

## CNC(=O)c1cccc2oc(-c3ccccc3O)nc12 [Compound 3]
HCV NS3 helicase (NS3h) [1]
  IC50: > 1.8 mM
HCV NS3 helicase (NS3h) [2]
  IC50: > 1.8 mM

## COC(=O)c1cccc2oc(-c3ccc4c(OCc5ccccc5)cccc4c3O)nc12 [Compound 5]
JEV helicase
  JEV helicase inhibition, in words: no inhibition
DENV helicase
  DENV helicase inhibition, in words: no inhibition
[3]
  Effect on gel mobility of plasmid: do not affect

## COC(=O)c1cccc2oc(-c3ccc4ccc(OCc5ccccc5)cc4c3O)nc12 [Compound 6]
JEV helicase
  JEV helicase inhibition, in words: no inhibition
DENV helicase
  DENV helicase inhibition, in words: no inhibition
[3]
  Effect on gel mobility of plasmid: do not affect

## COC(=O)c1cccc2oc(-c3cccc4oc(-c5ccccc5O)nc34)nc12 [UK-1]
HCV NS3 helicase (NS3h) [1]
  IC50: > 1.2 mM
HCV NS3 helicase (NS3h) [1]; RNA substrate
  HCV helicase inhibition, in words: no inhibition
HCV NS3 helicase (NS3h) [2]; DNA substrate
  HCV helicase inhibition, in words: weak inhibition
